Laboratory results published in patent US6737383B1, “Herbicidal oxadiazolidines” (priority 1999, dated 2004).

How the values were obtained:
[1] = tested on: bedstraw; assay: Test B pre/postemergence bedstraw; type: in vivo, Galium aparine
Outline: (§1)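 Response is a visual 0-to-10 score relative to untreated plants, where 0 means no effect and 10 means complete control, taken twelve to sixteen days after application. Treatments went onto soil at planting and onto foliage of 1- to 4-leaf plants, using a surfactant-containing non-phytotoxic solvent.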

[2] = tested on: blackgrass; assay: Test B pre/postemergence blackgrass; type: in vivo, Alopecurus myosuroides
Outline: as §1

[3] = tested on: surinam grass; assay: Test B pre/postemergence surinam grass; type: in vivo, Brachiaria decumbens
Outline: as §1

[4] = tested on: cocklebur; assay: Test B pre/postemergence cocklebur; type: in vivo, Xanthium strumarium
Outline: as §1

[5] = tested on: corn; assay: Test B pre/postemergence corn; type: in vivo, Zea mays
Outline: as §1

[6] = tested on: giant foxtail; assay: Test B pre/postemergence giant foxtail; type: in vivo, Setaria faberii
Outline: as §1

[7] = tested on: morningglory; assay: Test B pre/postemergence morningglory; type: in vivo, Ipomoea hederacea
Outline: as §1

[8] = tested on: pigweed; assay: Test B pre/postemergence pigweed; type: in vivo, Amaranthus retroflexus
Outline: as §1

[9] = tested on: rape; assay: Test B pre/postemergence rape; type: in vivo, Brassica napus
Outline: as §1

[10] = tested on: soybean; assay: Test B pre/postemergence soybean; type: in vivo, Glycine max
Outline: as §1

[11] = tested on: sugar beet; assay: Test B pre/postemergence sugar beet; type: in vivo, Beta vulgaris
Outline: as §1

[12] = tested on: velvetleaf; assay: Test B pre/postemergence velvetleaf; type: in vivo, Abutilon theophrasti
Outline: as §1

[13] = tested on: wheat; assay: Test B pre/postemergence wheat; type: in vivo, Triticum aestivum
Outline: as §1

[14] = tested on: wild oat; assay: Test B pre/postemergence wild oat; type: in vivo, Avena fatua
Outline: as §1

[15] = tested on: rice; assay: Test B flood test rice; type: in vivo, Oryza sativa
Outline: (§2)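 Flood test on plants grown to the 2-leaf stage; treated plants kept in greenhouse twelve to sixteen days, then visually rated against controls on a 0 (no effect) to 10 (complete control) scale.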

[16] = tested on: smallflower flatsedge; assay: Test B flood test smallflower flatsedge; type: in vivo, Cyperus difformis
Outline: as §2

[17] = Postemergence, Rate 125 g/ha, scale of 0 to 10 where 0 is no effect and 10 is complete control
[18] = Preemergence, Rate 62 g/ha, scale 0 to 10 (0 no effect, 10 complete control)
[19] = Preemergence, Rate 125 g/ha, 0 is no effect, 10 is complete control
[20] = Preemergence, Rate 250 g/ha, scale 0 to 10, 0 is no effect, 10 is complete control
[21] = Preemergence, Rate 500 g/ha, scale 0 to 10 (0 no effect, 10 complete control)
[22] = Rate 62 g/ha, Postemergence, scale of 0 to 10 where 0 is no effect and 10 is complete control
[23] = Rate 250 g/ha, Postemergence, scale 0 to 10, 0 is no effect, 10 is complete control
[24] = Rate 500 g/ha, Postemergence, scale 0 to 10
[25] = Postemergence (flood test species), Rate 125 g/ha, scale of 0 to 10 where 0 is no effect and 10 is complete control
[26] = Rate 62 g/ha, Postemergence section, flood test species, scale of 0 to 10 where 0 is no effect and 10 is complete control
[27] = Rate 250 g/ha, Postemergence (flood test), scale 0 to 10, 0 is no effect, 10 is complete control
[28] = Rate 500 g/ha, listed under Postemergence (flood test species), scale 0 to 10

CC(C)N(C(=O)n1oc(=O)n(CCCl)c1=O)c1ccc(F)cc1 [Compound 148]
Bedstraw plant response rating [1, 17]: 5 | Bedstraw plant response rating [1, 18]: 0 | Bedstraw plant response rating (0 to 10 scale) [1, 19]: 0 | Bedstraw plant response rating [1, 20]: 0 | Bedstraw plant response rating [1, 21]: 2 | Bedstraw plant response rating [1, 22]: 2 | Plant response rating, Bedstraw [1, 23]: 6 | Bedstraw plant response rating ([1]; Rate 500 g/ha, Postemergence, scale 0 to 10, 0 no effect, 10 complete control): 6 | Blackgrass plant response rating [2, 17]: 7 | Blackgrass plant response rating [2, 18]: 4 | Blackgrass plant response rating (0 to 10 scale) [2, 19]: 4 | Blackgrass plant response rating [2, 20]: 7 | Blackgrass plant response rating [2, 21]: 9 | Blackgrass plant response rating [2, 22]: 5 | Plant response rating, Blackgrass [2, 23]: 7 | Blackgrass plant response rating [2, 24]: 7 | B. signalgrass plant response rating [3, 17]: 3 | B. signalgrass plant response rating [3, 18]: 0 | B. signalgrass plant response rating (0 to 10 scale) [3, 19]: 5 | B. signalgrass plant response rating [3, 20]: 7 | B. signalgrass plant response rating [3, 21]: 7 | B. signalgrass plant response rating [3, 22]: 0 | Plant response rating, B. signalgrass [3, 23]: 5 | B. signalgrass plant response rating ([3]; Rate 500 g/ha, Postemergence, scale of 0 to 10 where 0 is no effect and 10 is complete control): 7 | Cocklebur plant response rating [4, 17]: 0 | Cocklebur plant response rating (0 to 10 scale) [4, 19]: 0 | Cocklebur plant response rating [4, 20]: 0 | Cocklebur plant response rating [4, 21]: 0 | Cocklebur plant response rating [4, 22]: 0 | Plant response rating, Cocklebur [4, 23]: 0 | Cocklebur plant response rating [4, 24]: 3 | Corn plant response rating [5, 17]: 0 | Corn plant response rating [5, 18]: 0 | Corn plant response rating (0 to 10 scale) [5, 19]: 0 | Corn plant response rating [5, 20]: 0 | Corn plant response rating [5, 21]: 0 | Corn plant response rating [5, 22]: 0 | Plant response rating, Corn [5, 23]: 0 | Corn plant response rating [5, 24]: 0 | Giant foxtail plant response rating [6, 17]: 8 | Giant foxtail plant response rating [6, 18]: 7 | Giant foxtail plant response rating (0 to 10 scale) [6, 19]: 9 | Giant foxtail plant response rating [6, 20]: 9 | Giant foxtail plant response rating [6, 21]: 10 | Giant foxtail plant response rating [6, 22]: 5 | Plant response rating, Giant foxtail [6, 23]: 8 | Giant foxtail plant response rating [6, 24]: 9 | Morningglory plant response rating [7, 17]: 3 | Morningglory plant response rating [7, 18]: 0 | Morningglory plant response rating (0 to 10 scale) [7, 19]: 0 | Morningglory plant response rating [7, 20]: 0 | Morningglory plant response rating [7, 21]: 1 | Morningglory plant response rating [7, 22]: 3 | Plant response rating, Morningglory [7, 23]: 3 | Morningglory plant response rating [7, 24]: 5 | Redroot pigweed plant response rating [8, 17]: 2 | Redroot pigweed plant response rating [8, 18]: 7 | Redroot pigweed plant response rating (0 to 10 scale) [8, 19]: 9 | Redroot pigweed plant response rating [8, 20]: 9 | Redroot pigweed plant response rating [8, 21]: 10 | Redroot pigweed plant response rating [8, 22]: 2 | Redroot pigweed plant response rating [8, 24]: 5 | Rape plant response rating [9, 17]: 2 | Rape plant response rating [9, 18]: 0 | Rape plant response rating (0 to 10 scale) [9, 19]: 0 | Rape plant response rating [9, 20]: 6 | Rape plant response rating [9, 21]: 9 | Rape plant response rating [9, 22]: 1 | Plant response rating, Rape [9, 23]: 3 | Rape plant response rating [9, 24]: 4 | Soybean plant response rating [10, 17]: 4 | Soybean plant response rating [10, 18]: 0 | Soybean plant response rating (0 to 10 scale) [10, 19]: 0 | Soybean plant response rating [10, 20]: 0 | Soybean plant response rating [10, 21]: 0 | Soybean plant response rating [10, 22]: 4 | Plant response rating, Soybean [10, 23]: 4 | Soybean plant response rating [10, 24]: 5 | Sugarbeets plant response rating [11, 17]: 3 | Sugarbeets plant response rating [11, 18]: 4 | Sugarbeets plant response rating (0 to 10 scale) [11, 19]: 6 | Sugarbeets plant response rating [11, 20]: 8 | Sugarbeets plant response rating [11, 21]: 10 | Sugarbeets plant response rating [11, 22]: 2 | Plant response rating, Sugarbeets [11, 23]: 4 | Sugarbeets plant response rating [11, 24]: 4 | Velvetleaf plant response rating [12, 17]: 0 | Velvetleaf plant response rating [12, 18]: 0 | Velvetleaf plant response rating (0 to 10 scale) [12, 19]: 6 | Velvetleaf plant response rating [12, 20]: 8 | Velvetleaf plant response rating [12, 21]: 8 | Velvetleaf plant response rating [12, 22]: 0 | Plant response rating, Velvetleaf [12, 23]: 0 | Velvetleaf plant response rating [12, 24]: 1 | Wheat plant response rating [13, 17]: 1 | Wheat plant response rating [13, 18]: 0 | Wheat plant response rating (0 to 10 scale) [13, 19]: 3 | Wheat plant response rating [13, 20]: 3 | Wheat plant response rating [13, 21]: 6 | Wheat plant response rating [13, 22]: 0 | Plant response rating, Wheat [13, 23]: 3 | Wheat plant response rating [13, 24]: 5 | Wild oats plant response rating [14, 17]: 1 | Wild oats plant response rating [14, 18]: 6 | Wild oats plant response rating (0 to 10 scale) [14, 19]: 6 | Wild oats plant response rating [14, 20]: 6 | Wild oats plant response rating [14, 21]: 8 | Wild oats plant response rating [14, 22]: 0 | Plant response rating, Wild oats [14, 23]: 5 | Wild oats plant response rating [14, 24]: 5 | Rice plant response rating [15, 25]: 0 | Rice plant response rating [15, 26]: 0 | Plant response rating, Rice [15, 27]: 0 | Rice plant response rating [15, 28]: 0 | S. Flatsedge plant response rating [16, 25]: 0 | S. Flatsedge plant response rating [16, 26]: 0 | Plant response rating, S. Flatsedge [16, 27]: 0 | S. Flatsedge plant response rating [16, 28]: 2
